According to patent publication US20090169583A1, “Solid Adsorbates of Hydrophobic Drugs” (Pfizer, Inc., priority 2005, published 2009):

What was measured:
aqueous solubility = format: physicochemical; conditions: aqueous medium; aqueous solubility determined at about 22° C. unless otherwise specified
Experimental: A second property of hydrophobic drugs is that they have low aqueous solubility. […] Extremely low aqueous solubility often leads to poor or slow absorption of the drug from the fluid of the gastrointestinal tract, when the drug is dosed orally in a conventional manner. For extremely low solubility drugs, absorption generally becomes progressively more difficult as the dose (mass of drug given orally) increases. Thus, a third property of hydrophobic drugs is a very high dose (in mg) to solubility (In mg/ml) ratio (ml). By “very high dose-to-solubility ratio” is meant that the dose-to-solubility ratio may have a value of at least 1000 ml, at least 5,000 ml, or even at least 10,000 ml. The dose-to-solubility ratio may be determined by dividing the dose (in mg) by the aqueous solubility (in mg/ml).
CETP inhibitors, in particular torcetrapib, and methods for preparing such compounds are disclosed in detail in U.S. Pat. Nos. 6,197,786 and 6,313,142, in PCT Application Nos. WO 01/40190A1, WO 02/088085A2, and WO 02/088069A2, the disclosures of which are herein incorporated by reference. Torcetrapib has an unusually low solubility in aqueous environments such as the lumenal fluid of the human GI tract. The aqueous solubility of torcetrapib is less than about 0.04 μg/ml. […]

[1] = microcentrifuge dissolution test (in vitro evaluation of concentration enhancement); format: physicochemical; conditions: for AUC: area under concentration-versus-time curve in PBS pH 6.5, 37° C.; for Concentration: dissolved torcetrapib in supernatant, 1000 μg/mL if all drug dissolved
Experimental: The solid composition of Example 1 was evaluated in vitro using a microcentrifuge dissolution test as follows. For this test, a sufficient amount of material was added to a microcentrifuge test tube so that the concentration of torcetrapib would have been 1000 μg/mL, if all of the drug had dissolved. The test was run in duplicate. The tubes were placed in a 37° C. temperature-controlled chamber, and 1.8 mL PBS at pH 6.5 and 290 mOsm/kg was added to each respective tube. The samples were quickly mixed using a vortex mixer for about 60 seconds. The samples were centrifuged at 13,000 G at 37° C. for 1 minute. The resulting supernatant solution was then sampled and diluted 1:6 (by volume) with methanol and then analyzed by HPLC. The contents of each tube were mixed on the vortex mixer and allowed to stand undisturbed at 37° C. until the next sample was taken. Samples were collected at 4, 10, 20, 40, 90, and 1200 minutes. Control 1 (C1) consisted of crystalline torcetrapib alone, and a sufficient amount of material was added so that the concentration of drug would have been 1000 μg/mL, if all of the drug had dissolved. The concentrations of drug obtained in these samples were used to determine the maximum drug concentration (“MDC90”) and the area under the concentration-versus-time curve (“AUC90”) during the initial ninety minutes.

[2] = during the initial ninety minutes, PBS pH 6.5, 37° C.

solubility (aqueous solubility): < 0.04 µg/mL
AUC ([1]; up to time 0 min): 0 µg·min/mL
AUC ([1]; up to time 4 min): <2 µg·min/mL
AUC ([1]; up to time 10 min): <8 µg·min/mL
AUC ([1]; up to time 20 min): <18 µg·min/mL
AUC ([1]; up to time 40 min): <38 µg·min/mL
AUC ([1]; up to time 90 min): <88 µg·min/mL
AUC ([1]; up to time 1200 min): <1,200 min*μg/mL
C1200 ([1]; concentration at 1200 minutes, PBS pH 6.5, 37° C.): <1 µg/mL
Concentration ([1]; PBS pH 6.5, 37° C., time 0 min): 0 ng/mL
Concentration ([1]; PBS pH 6.5, 37° C., time 4 min): <1000 ng/mL
Concentration ([1]; PBS pH 6.5, 37° C., time 10 min): <1000 ng/mL
Concentration ([1]; PBS pH 6.5, 37° C., time 20 min): <1000 ng/mL
Concentration ([1]; PBS pH 6.5, 37° C., time 40 min): <1000 ng/mL
Concentration ([1]; PBS pH 6.5, 37° C., time 90 min): <1000 ng/mL
Concentration ([1]; PBS pH 6.5, 37° C., time 1200 min): <1000 ng/mL
AUC90 (area under the concentration-versus-time curve) [1, 2]: <88 µg·min/mL
MDC90 (maximum drug concentration) [1, 2]: <1 µg/mL
Compound: CCOC(=O)N1c2ccc(C(F)(F)F)cc2[C@@H](N(Cc2cc(C(F)(F)F)cc(C(F)(F)F)c2)C(=O)OC)C[C@H]1CC [torcetrapib, [2R,4S]-4-[(3,5-bis-trifluoromethyl-benzyl)-methoxycarbonyl-amino]-2-ethyl-6-trifluoromethyl-3,4-dihydro-2H-quinoline-1-carboxylic acid ethyl ester]
